# Experimental data reported in ChEMBL document CHEMBL1287731, “Synthesis and in vitro inhibitory activity of matrine derivatives towards pro-inflammatory cytokines” (Bioorg Med Chem Lett, 2010).
# Experiments:
# [1] = system: RAW264.7; experiment: Antiinflammatory activity in mouse RAW264.7 cells assessed as inhibition of LPS-induced TNF-alpha production after 6 hrs by ELISA; type: functional, cell-based; conditions: for IC50: RAW264.7, 6 h
# [2] = system: RAW264.7; experiment: Cytotoxicity against mouse RAW264.7 cells; type: cell-based
# [3] = system: RAW264.7; experiment: Inhibition of NF-kappaB transcriptional activity in LPS-stimulated mouse RAW264.7 cells by dual luciferase reporter assay relative to renilla luciferase activity; type: cell-based
# [4] = system: RAW264.7; experiment: Antiinflammatory activity in mouse RAW264.7 cells assessed as inhibition of LPS-induced TNF-alpha production at 10 uM after 6 hrs by ELISA; type: functional; conditions: RAW264.7, 6 h
SMILES,inhibition [1],IC50 [1] [µM],Activity [2],fold change (FC) [3],inhibition at 10 µM [4] [%]
C=CCN[C@@H]1CC(=S)N2C[C@@H]3CCCN4CCC[C@@H]([C@H]34)[C@H]2C1,Dose-dependent effect,9.4,Non-toxic,1.47,52.5
S=C1C[C@@H](NCC2CC2)C[C@@H]2[C@H]3CCCN4CCC[C@@H](CN12)[C@@H]34,Dose-dependent effect,119,Non-toxic,7.83,16.2
CCN[C@@H]1CC(=S)N2C[C@@H]3CCCN4CCC[C@@H]([C@H]34)[C@H]2C1,Dose-dependent effect,23.5,Non-toxic,1.96,41.5
CCCN[C@@H]1CC(=S)N2C[C@@H]3CCCN4CCC[C@@H]([C@H]34)[C@H]2C1,Dose-dependent effect,93.5,Non-toxic,3.4,9.6
OCCCN[C@@H]1CC(=S)N2C[C@@H]3CCCN4CCC[C@@H]([C@H]34)[C@H]2C1,Dose-dependent effect,53.8,Non-toxic,3.14,22.8
OCCOCCN[C@@H]1CC(=S)N2C[C@@H]3CCCN4CCC[C@@H]([C@H]34)[C@H]2C1,Dose-dependent effect,57.5,Non-toxic,4.75,8.4
CC(C)N[C@@H]1CC(=S)N2C[C@@H]3CCCN4CCC[C@@H]([C@H]34)[C@H]2C1,Dose-dependent effect,52.3,Non-toxic,6.56,24
O=C1C=CC[C@@H]2[C@H]3CCCN4CCC[C@@H](CN12)[C@@H]34 [SOPHOCARPINE],Dose-dependent effect,> 200,Non-toxic,3.47,
OCCN[C@@H]1CC(=S)N2C[C@@H]3CCCN4CCC[C@@H]([C@H]34)[C@H]2C1,Dose-dependent effect,39.2,Non-toxic,4.85,29.3
N[C@@H]1CC(=O)N2C[C@@H]3CCCN4CCC[C@@H]([C@H]34)[C@H]2C1,Dose-dependent effect,> 200,Non-toxic,6.54,
CN[C@@H]1CC(=S)N2C[C@@H]3CCCN4CCC[C@@H]([C@H]34)[C@H]2C1,Dose-dependent effect,93.2,Non-toxic,3.69,9.1
O=C1CCC[C@@H]2[C@H]3CCCN4CCC[C@@H](CN12)[C@@H]34 [MATRINE],Dose-dependent effect,> 200,Non-toxic,5.11,
S=C1C[C@@H](NCc2ccccc2)C[C@@H]2[C@H]3CCCN4CCC[C@@H](CN12)[C@@H]34,Dose-dependent effect,62,Non-toxic,8.39,33.9
